Measured values taken from patent US20260234164A1, “BIPHENYL COMPOUND AS IMMUNOMODULATOR, PREPARATION METHOD THEREFOR AND USE THEREOF” (SHENZHEN CHIPSCREEN BIOSCIENCES CO., LTD., priority 2021, published 2026).

Target: T1, CD80/PD-L1 binding (Homo sapiens, UniProt Q9NZQ7)
T1 construct: purchased Sino Biological Inc. 10084-H02H-100 (PD-L1-Fc); 10698-H08H-100 (His-CD80)
Assay: HTRF inhibition of CD80/PD-L1 binding in vitro
Conditions: His-CD80 100 nM, PD-L1-Fc 2 nM, read-out: IC50 inhibiting CD80/PD-L1 binding in vitro
Text: In addition to PD-1, PD-L1 can also exert immunosuppressive activity by binding to CD80. Similarly, in vitro experiments of binding or binding inhibition of CD80 and PD-L1 can also be measured by homogeneous time-resolved fluorescence (HTRF). When the anti-hFc-Eu^3+ antibody and anti-His-XL665 antibody were bound to the hFC tag fused to PD-L1 and the His tag fused to CD80 respectively, and excited with a 320 nm wavelength laser, the binding of PD-L1 and CD80 enabled energy to be transferred from the Eu element to the XL665 fluorescein, which was excited to emit light. When the inhibitor of the interaction between PD-L1 and CD80 was added, the combination of the two was destroyed, so that the distance between Eu and XL665 was far away, the energy cannot be transferred, and XL665 would not be excited.
Recombinant human CD80 protein with His tag (His-CD80 protein, Cat #: 10698-H08H-100), and recombinant human PD-L1-Fc fusion protein (PD-L1-Fc fusion protein, Cat #: 10084-H02H-100) were purchased from Sino Biological Inc., anti-hFc-Eu^3+ antibody and anti-His-XL665 antibody were purchased from Cisbio Company, and other related reagents such as dilution buffer (Diluent buffer 5, Cat #: 62DL5DDC), detection buffer (PPI-Europium detection buffer, Cat #: 61DB9RDF) were purchased from Cisbio Company. Fluorescence detection instrument Tecan (Spark 10 M) was purchased from Switzerland Tecan Company.
(1) Experimental preparation: The test compound was diluted with dilution buffer into different concentration gradients (the highest final concentration in 20 μL final reaction system was 10 μM), His-CD80 protein was diluted to 800 nM (the final concentration in 20 μL final reaction system was 100 nM), and the PD-L1-Fc fusion protein was diluted to 16 nM (final concentration was 2 nM). The anti-His-XL665 antibody and anti-hFc-Eu^3+ antibody were respectively diluted 20 times and 100 times using the detection buffer according to the reagent requirements.
(2) 5 μL of test compound, 2.5 μL of Hid-CD80 protein and 2.5 μL of […] solution were mixed, and incubated at room temperature for 15 min. Then the system was added with 5 μL of anti-His-XL665 antibody and 5 μL of anti-hFc-Eu^3+ antibody, incubated for another 3 h, and then detected.
(3) When detecting the reaction, a control group was provided, including a 0% inhibition positive control without adding test compounds and a 100% inhibition negative control without adding CD-80 protein. All detections were performed with duplicates.
(4) The fluorescence signal of each well was measured using a fluorescence detector Tecan (Spark 10M) at an excitation wavelength of 320 nm, and emission wavelengths of 620 nm and 665 nm, respectively. The intensity of the mutual binding of CD80 and PD-L1 referred to the ratio of fluorescence signals Em665/Em620.
(5) The binding inhibition rate of the test compound was calculated as follows: Inhibition rate (%)=[1−(Fluorescence signal ratio of detection well-fluorescence signal ratio of 100% inhibition negative control)]/(fluorescence signal ratio of 0% inhibition positive control-fluorescence signal ratio of 100% inhibition negative control)×100%. After calculating the inhibition rate on CD80/PD-L1 binding of the test compounds with different concentration gradients, the 50% inhibitory concentration (IC50) was calculated.

T1 sequence (Q9NZQ7 19-239 limits assumed): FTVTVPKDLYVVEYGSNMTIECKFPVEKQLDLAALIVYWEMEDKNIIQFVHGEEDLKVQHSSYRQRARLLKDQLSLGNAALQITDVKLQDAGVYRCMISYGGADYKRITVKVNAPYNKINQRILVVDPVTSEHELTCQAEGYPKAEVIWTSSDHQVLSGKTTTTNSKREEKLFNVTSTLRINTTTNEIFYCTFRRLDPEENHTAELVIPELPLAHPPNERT

Compound | IC50 [nM]
[2H]c1c([2H])c(NC(=O)c2nc3c(n2C)CCN(CCC24CCC(COC([2H])([2H])[2H])(CC2)C4)C3)c(F)c(-c2c([2H])c([2H])c([2H])c(NC(=O)c3nc4c(n3C)CCN(CCC35CCC(C(=O)O)(CC3)C5)C4)c2Cl)c1[2H] (single isomer, unassigned) [Compound I-14, 4-(2-(2-((2-chloro-2′-fluoro-3′-(5-(2-(4-((methoxy-d3)methyl)bicyclo[2.2.1]heptane-1-y 1)ethyl)-1-methyl-4,5,6,7-tetrahydro-1H-imidazo[4,5-c]pyridine-2-carboxamido)-[1,1′-biphenyl]-3-yl-4,4′,5,5′,6,6′-d6)carbamoyl)-1-methyl-1,4,6,7-tetrahydro-5H-imidazo[4,5-c]pyridin-5-yl)ethyl)bicyclo[2.2.1]heptane-1-carboxylic acid] | 0.37
[2H]C([2H])([2H])OCC12CCC(CCN3CCc4c(nc(C(=O)Nc5cccc(-c6cccc(NC(=O)c7nc8c(n7C)CCN(CCC79CCC(C(=O)O)(CC7)C9)C8)c6C)c5Cl)n4C)C3)(CC1)C2 [Compound I-3, 4-(2-(2-((2′-chloro-3′-(5-(2-(4-((methoxy-d3)methyl)bicyclo[2.2.1]heptane-1-yl)ethyl)-1-methyl-4,5,6,7-tetrahydro-1H-imidazo[4,5-c]pyridine-2-carboxamido)-2-methyl-[1,1′-biphenyl]-3-yl)carbamoyl)-1-methyl-1,4,6,7-tetrahydro-5H-imidazo[4,5-c]pyridin-5-yl)ethyl)bicyclo[2.2.1]heptane-1-carboxylic acid] | 1.78
[2H]C([2H])([2H])n1c(C(=O)Nc2cccc(-c3cccc(NC(=O)c4nc5c(n4C([2H])([2H])[2H])CCN(CCC46CCC(C(=O)O)(CC4)C6)C5)c3Cl)c2C)nc2c1CCN(CCC13CCC(COC)(CC1)C3)C2 [Compound I-10, 4-(2-(2-((2-chloro-3′-(5-(2-(4-(methoxymethyl)bicyclo[2.2.1]heptane-1-yl)ethyl)-1-(methyl-d3)-4,5,6,7-tetrahydro-1H-imidazo[4,5-c]pyridine-2-carboxamido)-2′-methyl-[1,1′-biphenyl]-3-yl)carbamoyl)-1-(methyl-d3)-1,4,6,7-tetrahydro-5H-imidazo[4,5-c]pyridin-5-yl)ethyl)bicyclo[2.2.1]heptane-1-carboxylic acid] | 4.26
[2H]C([2H])([2H])n1c(C(=O)Nc2cccc(-c3cccc(NC(=O)c4nc5c(n4C([2H])([2H])[2H])CCN(CCC46CCC(C(=O)O)(CC4)C6)C5)c3Cl)c2Cl)nc2c1CCN(CCC13CCC(COC)(CC1)C3)C2 [Compound I-6, 4-(2-(2-((2,2′-dichloro-3′-(5-(2-(4-((methoxy)methyl)bicyclo[2.2.1]heptane-1-yl)ethyl)-1-(methyl-d3)-4,5,6,7-tetrahydro-1H-imidazo[4,5-c]pyridine-2-carboxamido)-[1,1′-biphenyl]-3-yl)carbamoyl)-1-(methyl-d3)-1,4,6,7-tetrahydro-5H-imidazo[4,5-c]pyridin-5-yl)ethyl)bicyclo[2.2.1]heptane-1-carboxylic acid] | 0.95
[2H]C([2H])([2H])OCC12CCC(CCN3CCc4c(nc(C(=O)Nc5cccc(-c6cccc(NC(=O)c7nc8c(n7C)CCN(CCC79CCC(C(=O)O)(CC7)C9)C8)c6Cl)c5C)n4C)C3)(CC1)C2 [Compound I-4, 4-(2-(2-((2-chloro-3′-(5-(2-(4-((methoxy-d3)methyl)bicyclo[2.2.1]heptane-1-yl)ethyl)-1-methyl-4,5,6,7-tetrahydro-1H-imidazo[4,5-c]pyridine-2-carboxamido)-2′-methyl-[1,1′-biphenyl]-3-yl)carbamoyl)-1-methyl-1,4,6,7-tetrahydro-5H-imidazo[4,5-c]pyridin-5-yl)ethyl)bicyclo[2.2.1]heptane-1-carboxylic acid] | 1.75
[2H]C([2H])([2H])n1c(C(=O)Nc2cccc(-c3cccc(NC(=O)c4nc5c(n4C([2H])([2H])[2H])CCN(CCC46CCC(COC)(CC4)C6)C5)c3Cl)c2C)nc2c1CCN(CCC13CCC(C(=O)O)(CC1)C3)C2 [Compound I-12, 4-(2-(2-((2′-chloro-3′-(5-(2-(4-(methoxymethyl)bicyclo[2.2.1]heptane-1-yl)ethyl)-1-(methyl-d3)-4,5,6,7-tetrahydro-1H-imidazo[4,5-c]pyridine-2-carboxamido)-2-methyl-[1,1′-biphenyl]-3-yl)carbamoyl)-1-(methyl-d3)-1,4,6,7-tetrahydro-5H-imidazo[4,5-c]pyridin-5-yl)ethyl)bicyclo [2.2.1]heptane-1-carboxylic acid] | 2.94
[2H]C([2H])([2H])OCC12CCC(CCN3CCc4c(nc(C(=O)Nc5cccc(-c6cccc(NC(=O)c7nc8c(n7C([2H])([2H])[2H])CCN(CCC79CCC(C(=O)O)(CC7)C9)C8)c6Cl)c5F)n4C([2H])([2H])[2H])C3)(CC1)C2 (single isomer, unassigned) [Compound I-7, 4-(2-(2-((2-chloro-2′-fluoro-3′-(5-(2-(4-((methoxy-d3)methyl)bicyclo[2.2.1]heptane-1-yl)ethyl)-1-(methyl-d3)-4,5,6,7-tetrahydro-1H-imidazo[4,5-c]pyridine-2-carboxamido)-[1,1′-biphenyl]-3-yl)carbamoyl)-1-(methyl-d3)-1,4,6,7-tetrahydro-5H-imidazo[4,5-c]pyridin-5-yl)ethyl)bicyclo[2.2.1]heptane-1-carboxylic acid] | 1.94
[2H]c1c([2H])c(NC(=O)c2nc3c(n2C([2H])([2H])[2H])CCN(CCC24CCC(COC([2H])([2H])[2H])(CC2)C4)C3)c(Cl)c(-c2c([2H])c([2H])c([2H])c(NC(=O)c3nc4c(n3C([2H])([2H])[2H])CCN(CCC35CCC(C(=O)O)(CC3)C5)C4)c2Cl)c1[2H] [Compound I-13, 4-(2-(2-((2,2′-dichloro-3′-(5-(2-(4-((methoxy-d3)methyl)bicyclo[2.2.1]heptane-1-yl)ethyl)-1-(methyl-d3)-4,5,6,7-tetrahydro-1H-imidazo[4,5-c]pyridine-2-carboxamido)-[1,1′-biphenyl]-3-yl-4,4′, 5,5′,6,6′-d6)carbamoyl)-1-(methyl-d3)-1,4,6,7-tetrahydro-5H-imidazo[4,5-c]pyridin-5-yl)ethyl)bicyclo[2.2.1]heptane-1-carboxylic acid] | 1.44
[2H]C([2H])([2H])OCC12CCC(CCN3CCc4c(nc(C(=O)Nc5cccc(-c6cccc(NC(=O)c7nc8c(n7C)CCN(CCC79CCC(C(=O)O)(CC7)C9)C8)c6Cl)c5F)n4C)C3)(CC1)C2 (single isomer, unassigned) [Compound I-2, 4-(2-(2-((2-chloro-2′-fluoro-3′-(5-(2-(4-((methoxy-d3)methyl)bicyclo[2.2.1]heptane-1-y 1)ethyl)-1-methyl-4,5,6,7-tetrahydro-1H-imidazo[4,5-c]pyridine-2-carboxamido)-[1,1′-biphenyl]-3-yl)carbamoyl)-1-methyl-1,4,6,7-tetrahydro-5H-imidazo[4,5-c]pyridin-5-yl)ethyl)bicyclo[2.2.1]heptane-1-carboxylic acid] | 1.09
[2H]C([2H])([2H])n1c(C(=O)Nc2cccc(-c3cccc(NC(=O)c4nc5c(n4C([2H])([2H])[2H])CCN(CCC46CCC(C(=O)O)(CC4)C6)C5)c3Cl)c2F)nc2c1CCN(CCC13CCC(COC)(CC1)C3)C2 (single isomer, unassigned) [Compound I-8, 4-(2-(2-((2-chloro-2′-fluoro-3′-(5-(2-(4-(methoxymethyl)bicyclo[2.2.1]heptane-1-yl)ethyl)-1-(methyl-d3)-4,5,6,7-tetrahydro-1H-imidazo[4,5-c]pyridine-2-carboxamido)-[1,1′-biphenyl]-3-yl)carbamoyl)-1-(methyl-d3)-1,4,6,7-tetrahydro-5H-imidazo[4,5-c]pyridin-5-yl)ethyl)bicyclo[2.2.1]heptane-1-carboxylic acid] | 1.77
